Source: patent US20250177362A1, “HETEROCYCLIC GLP-1 AGONISTS” (Gasherbrum Bio, Inc., priority 2022, published 2025)

target: T1, GLP-1 Receptor (Homo sapiens, UniProt P43220); assay: GLP-1R agonist cAMP stimulation assay; type: cell-based; conditions: HEK293/CRE-Luc cell line stably expressing the GLP-1 Receptor; 30 min incubation; cAMP dynamic 2 Kit (Cisbio)
T1 construct: host or cells: HEK293/CRE-Luc (HEK293/GLPIR/CRE-LUC)
Method: Activation of GLP-1 receptor is known to stimulate cyclic AMP (cAMP) production in cells which indicates primary coupling to the Gas subunit of the G protein heterotrimeric complex.
To optimize functional activity directed toward Gas coupling, a HEK293/CRE-Luc cell line developed by HDB stably expressing the GLP-1 Receptor was used. 200× concentration of compound working solutions were prepared (Agilent Technologies Bravo) with ½ log serial dilution in 384-well Echo LDV plate (Labcyte, Cat #LP-0200). 50 nL/well 200× concentration of compound working solutions were moved to 384-well white low volume plate (Greiner, Cat #784075) using Labcyte ECHO550. 1×10^5 cells/mL HEK293/GLPIR/CRE-LUC (HD Biosciences) cell suspensions prepared with assay buffer [DPBS containing 0.5 mM IBMX (Sigma, Cat #15879) and 0.10% BSA (GENVIEW, Cat #FA016-100g)], 10 μL cell suspensions were added to each well of previous generated assay plate which already contains 50 nL compound at 200× concentration using ThermoFisher Multidrop Combi (1000 cells/well). Seal the plate and incubate at 37° C. with 5% CO2 for 30 min.
After incubation the cAMP assay signal was generated using cAMP dynamic 2 Kit (Cisbio). 5 μL cAMP-d2 working solution was added to each well, followed with 5 μL Anti-cAMP antibody-cryptate working solution added to each well using ThermoFisher Multidrop Combi. Incubate at room temperature for 1 hour protected from light. Read the fluorescence at 665 and 615 nm with Reader PerkinElmer EnVision.

T1 sequence (P43220 24-463, species assumed): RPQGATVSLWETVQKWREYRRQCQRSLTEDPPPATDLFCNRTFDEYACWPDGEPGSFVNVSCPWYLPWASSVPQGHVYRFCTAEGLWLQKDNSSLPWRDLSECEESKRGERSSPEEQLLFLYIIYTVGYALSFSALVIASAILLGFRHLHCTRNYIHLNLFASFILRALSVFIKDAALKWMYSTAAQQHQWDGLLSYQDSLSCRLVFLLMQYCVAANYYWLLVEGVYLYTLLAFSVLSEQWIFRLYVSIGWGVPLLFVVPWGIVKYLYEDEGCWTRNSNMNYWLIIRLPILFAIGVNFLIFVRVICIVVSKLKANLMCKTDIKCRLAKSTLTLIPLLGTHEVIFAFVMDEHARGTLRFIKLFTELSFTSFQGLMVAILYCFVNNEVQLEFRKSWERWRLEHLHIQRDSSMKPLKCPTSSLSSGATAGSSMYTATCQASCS

EC50 | Compound
< 1 nM | C[C@]1(c2ccc(C(N)=O)cc2F)Oc2cccc(C3CCN(Cc4ncc(-c5nnc(C(F)(F)F)[nH]5)cc4CC4(C#N)CC4)CC3)c2O1 [A-1]
1 to 100 nM | CC1(c2ccc(C(=O)O)cc2F)Oc2cccc(C3CCN(Cc4ncc(-c5nnc(C(F)(F)F)[nH]5)cc4CC4(C#N)CC4)CC3)c2O1 (centres unmarked) [A-3]
< 1 nM | C[C@]1(c2ccc(Cl)cc2F)Oc2cccc(C3CCC(Cc4ncc(-c5nnc(C(N)=O)[nH]5)cc4CC4(C#N)CC4)CC3)c2O1 (some centres unmarked) [B-1]
< 1 nM | N#CC1(Cc2cc(-c3nc(C(F)(F)F)n[nH]3)cnc2CN2CCC(c3ccc4cnn(Cc5ccc(Cl)cc5F)c4n3)CC2)CC1 [C-1]
1 to 100 nM | COCCNC(=O)c1cnc(CN2CCC(c3cccc4c3O[C@@](C)(c3ccc(Cl)cc3F)O4)CC2)c(CC2(C#N)CC2)c1 [D-3]
1 to 100 nM | CNC(=O)c1cnc(CN2CCC(c3cccc4c3O[C@@](C)(c3ccc(Cl)cc3F)O4)CC2)c(CC2(C#N)CC2)c1 [D-4]
> 100 nM | C[C@]1(c2ccc(Cl)cn2)Oc2cccc(C3CCN(Cc4ncc(C(=O)NC5(C#N)CC5)cc4CC4(C#N)CC4)CC3)c2O1 [D-6]
> 100 nM | N#CC1(Cc2cc(C(=O)NC3(C#N)CC3)cnc2CN2CCC(c3ccc(F)c(OCc4ccc(Cl)cc4F)n3)CC2)CC1 [D-7]
< 1 nM | COCCNC(=O)c1nnc(-c2cnc(CN3CCC(c4cccc5c4O[C@@](C)(c4ccc(Cl)cc4F)O5)CC3)c(CC3(C#N)CC3)c2)[nH]1 [E-3]
< 1 nM | CNC(=O)c1nnc(-c2cnc(CN3CCC(c4cccc5c4O[C@@](C)(c4ccc(Cl)cc4F)O5)CC3)c(CC3(C#N)CC3)c2)[nH]1 [E-4]
< 1 nM | C[C@]1(c2ccc(Cl)cc2F)Oc2cccc(C3CCN(Cc4ncc(-c5nnc(C(=O)NC6CC6)[nH]5)cc4CC4(C#N)CC4)CC3)c2O1 [E-5]
1 to 100 nM | Cc1cc(-c2nnc(-c3cccnc3)[nH]2)cnc1CN1CCC(c2cccc3c2O[C@@](C)(c2ccc(Cl)cc2F)O3)CC1 [E-6]
1 to 100 nM | Cc1cc(-c2csc(C(=O)O)n2)cnc1CN1CCC(c2cccc3c2OC(C)(c2ccc(Cl)cc2F)O3)CC1 (centres unmarked) [E-7]
1 to 100 nM | Cc1cc(-c2cc(C(=O)O)n[nH]2)cnc1CN1CCC(c2cccc3c2OC(C)(c2ccc(Cl)cc2F)O3)CC1 (centres unmarked) [E-8]
1 to 100 nM | Cc1cc(-c2cnc(C(=O)O)s2)cnc1CN1CCC(c2cccc3c2OC(C)(c2ccc(Cl)cc2F)O3)CC1 (centres unmarked) [E-9]
> 100 nM | Cc1cc(-c2nnc(C3CCCOC3)[nH]2)cnc1CN1CCC(c2cccc3c2O[C@@](C)(c2ccc(Cl)cc2F)O3)CC1 (some centres unmarked) [E-10]
> 100 nM | COCCc1cc(-c2nnc(C(=O)O)[nH]2)cnc1CN1CCC(c2cccc3c2O[C@@](C)(c2ccc(Cl)cc2F)O3)CC1 [E-11]
> 100 nM | Cc1cc(-c2noc(-c3cccnc3)n2)cnc1CN1CCC(c2cccc(OCc3ccc(Cl)cc3F)n2)CC1 [E-12]
> 100 nM | Cc1cc(-c2ccncc2)cnc1CN1CCC(c2cccc3c2OC(C)(c2ccc(Cl)cc2F)O3)CC1 (centres unmarked) [E-14]

EC50 | Compound
> 100 nM | Cc1cc(-c2nc(-c3cccnc3)no2)cnc1CN1CCC(c2cccc(OCc3ccc(Cl)cc3F)n2)CC1 [E-15]
> 100 nM | Cc1cc(-c2nnc(-c3cccnc3)s2)cnc1CN1CCC(c2cccc(OCc3ccc(Cl)cc3F)n2)CC1 [E-16]
> 100 nM | Cc1cc(-c2nc(C(=O)O)cs2)cnc1CN1CCC(c2cccc3c2OC(C)(c2ccc(Cl)cc2F)O3)CC1 (centres unmarked) [E-17]
1 to 100 nM | COCCc1cc(-c2nnc(C(=O)OC)[nH]2)cnc1CN1CCC(c2cccc3c2O[C@@](C)(c2ccc(Cl)cc2F)O3)CC1 [E-18]
< 1 nM | C[C@]1(c2ccc(Cl)cc2F)Oc2cccc(C3CCN(Cc4ncc(-c5nnc(C(=O)O)[nH]5)cc4CC4(C#N)CC4)CC3)c2O1 [E-19]
< 1 nM | C[C@]1(c2ccc(Cl)cc2F)Oc2cccc(C3CCN(Cc4ncc(-c5nnc(C(F)(F)F)[nH]5)cc4N4CCOCC4)CC3)c2O1 [F-1, 4-[2-({4-[(2S)-2-(4-chloro-2-fluorophenyl)-2-methyl-2H-1,3-benzodioxol-4-yl]piperidin-1-yl}methyl)-5-[5-(trifluoromethyl)-4H-1,2,4-triazol-3-yl]pyridin-3-yl]morpholine]
1 to 100 nM | C[C@]1(c2ccc(Cl)cc2F)Oc2cccc(C3CCN(Cc4ncc(-c5nnc(C(F)(F)F)[nH]5)cc4N4CCOC4=O)CC3)c2O1 [F-2, 3-[2-({4-[(2S)-2-(4-chloro-2-fluorophenyl)-2-methyl-2H-1,3-benzodioxol-4-yl]piperidin-1-yl}methyl)-5-[5-(trifluoromethyl)-4H-1,2,4-triazol-3-yl]pyridin-3-yl]-1,3-oxazolidin-2-one]
1 to 100 nM | CC1COCCN1c1cc(-c2nnc(C(F)(F)F)[nH]2)nnc1CN1CCC(c2cccc3c2O[C@@](C)(c2ccc(Cl)cc2F)O3)CC1 (stereo partly drawn) [F-3, 4-[3-({4-[(2S)-2-(4-chloro-2-fluorophenyl)-2-methyl-2H-1,3-benzodioxol-4-yl]piperidin-1-yl}methyl)-6-[5-(trifluoromethyl)-4H-1,2,4-triazol-3-yl]pyridazin-4-yl]-3-methylmorpholine]
1 to 100 nM | COCCNc1cc(-c2nnc(C(F)(F)F)[nH]2)cnc1CN1CCC(c2cccc3c2O[C@@](C)(c2ccc(Cl)cc2F)O3)CC1 [F-4, 2-({4-[(2S)-2-(4-chloro-2-fluorophenyl)-2-methyl-2H-1,3-benzodioxol-4-yl]piperidin-1-yl}methyl)-N-(2-methoxyethyl)-5-[5-(trifluoromethyl)-4H-1,2,4-triazol-3-yl]pyridin-3-amine]
1 to 100 nM | C[C@]1(c2ccc(Cl)cc2F)Oc2cccc(C3CCN(Cc4ncc(-c5nnc(C(F)(F)F)[nH]5)cc4N4CC5CC4CO5)CC3)c2O1 (stereo partly drawn) [F-5, 5-[2-({4-[(2S)-2-(4-chloro-2-fluorophenyl)-2-methyl-2H-1,3-benzodioxol-4-yl]piperidin-1-yl}methyl)-5-[5-(trifluoromethyl)-4H-1,2,4-triazol-3-yl]pyridin-3-yl]-2-oxa-5-azabicyclo[2.2.1]heptane]
1 to 100 nM | C[C@]1(c2ccc(Cl)cc2F)Oc2cccc(C3CCN(Cc4ncc(-c5nnc(C(F)(F)F)[nH]5)cc4C4CCOCC4)CC3)c2O1 [F-6, (S)-2-((4-(2-(4-chloro-2-fluorophenyl)-2-methylbenzo[d][1,3]dioxol-4-yl)piperidin-1-yl)methyl)-3-(tetrahydro-2H-pyran-4-yl)-5-(5-(trifluoromethyl)-4H-1,2,4-triazol-3-yl)pyridine]
1 to 100 nM | C[C@]1(c2ccc(Cl)cc2F)Oc2cccc(C3CCN(Cc4ncc(-c5nnc(C(F)(F)F)[nH]5)cc4N4CCC(O)C4)CC3)c2O1 (stereo partly drawn) [F-7, 1-[2-({4-[(2S)-2-(4-chloro-2-fluorophenyl)-2-methyl-2H-1,3-benzodioxol-4-yl]piperidin-1-yl}methyl)-5-[5-(trifluoromethyl)-4H-1,2,4-triazol-3-yl]pyridin-3-yl]pyrrolidin-3-ol]
1 to 100 nM | C[C@]1(c2ccc(Cl)cc2F)Oc2cccc(C3CCN(Cc4nnc(-c5nnc(C(F)(F)F)[nH]5)cc4N4CCOC5(CC5)C4)CC3)c2O1 [F-8, (S)-7-(3-((4-(2-(4-chloro-2-fluorophenyl)-2-methylbenzo[d][1,3]dioxol-4-yl)piperidin-1-yl)methyl)-6-(5-(trifluoromethyl)-4H-1,2,4-triazol-3-yl)pyridazin-4-yl)-4-oxa-7-azaspiro[2.5]octane]
1 to 100 nM | C[C@]1(c2ccc(Cl)cc2F)Oc2cccc(C3CCN(Cc4ncc(-c5nnc(C(F)(F)F)[nH]5)cc4N4CCNC(=O)C4)CC3)c2O1 [F-9]
1 to 100 nM | C[C@]1(c2ccc(Cl)cc2F)Oc2cccc(C3CCN(Cc4ncc(-c5nnc(C(F)(F)F)[nH]5)cc4C4CCCOC4)CC3)c2O1 (some centres unmarked) [F-10]
1 to 100 nM | C[C@]1(c2ccc(Cl)cc2F)Oc2cccc(C3CCN(Cc4ncc(-c5nnc(C(F)(F)F)[nH]5)cc4NC4CCCC4)CC3)c2O1 [F-11, (S)-2-((4-(2-(4-chloro-2-fluorophenyl)-2-methylbenzo[d][1,3]dioxol-4-yl)piperidin-1-yl)methyl)-N-cyclopentyl-5-(5-(trifluoromethyl)-4H-1,2,4-triazol-3-yl)pyridin-3-amine]
1 to 100 nM | CC1(c2ccc(Cl)cc2F)Oc2cccc(C3CCN(Cc4ncc(-c5nnc(C(F)(F)F)[nH]5)cc4OC4CCCC4)CC3)c2O1 (centres unmarked) [F-12, 2-((4-(2-(4-chloro-2-fluorophenyl)-2-methylbenzo[d][1,3]dioxol-4-yl)piperidin-1-yl)methyl)-3-(cyclopentyloxy)-5-(5-(trifluoromethyl)-4H-1,2,4-triazol-3-yl)pyridine]
1 to 100 nM | CC1(C#N)CCN(c2cc(-c3nnc(C(F)(F)F)[nH]3)cnc2CN2CCC(c3cccc4c3O[C@@](C)(c3ccc(Cl)cc3F)O4)CC2)C1 (stereo partly drawn) [F-13, 1-(2-((4-((S)-2-(4-chloro-2-fluorophenyl)-2-methylbenzo[d][1,3]dioxol-4-yl)piperidin-1-yl)methyl)-5-(5-(trifluoromethyl)-4H-1,2,4-triazol-3-yl)pyridin-3-yl)-3-methylpyrrolidine-3-carbonitrile]
1 to 100 nM | CC1(c2ccc(Cl)cc2F)Oc2cccc(C3CCN(Cc4ncc(-c5nnn[nH]5)cc4C4CC4)CC3)c2O1 (centres unmarked) [F-14, 2-((4-(2-(4-chloro-2-fluorophenyl)-2-methylbenzo[d][1,3]dioxol-4-yl)piperidin-1-yl)methyl)-3-cyclopropyl-5-(1H-tetrazol-5-yl)pyridine]
